{"source": "paper PMC3802547", "about": "(Molecular bioSystems, 2011)", "molecular_target": "LasB (elastase) (Pseudomonas aeruginosa, UniProt P14756)", "sequence (P14756 198-498)": "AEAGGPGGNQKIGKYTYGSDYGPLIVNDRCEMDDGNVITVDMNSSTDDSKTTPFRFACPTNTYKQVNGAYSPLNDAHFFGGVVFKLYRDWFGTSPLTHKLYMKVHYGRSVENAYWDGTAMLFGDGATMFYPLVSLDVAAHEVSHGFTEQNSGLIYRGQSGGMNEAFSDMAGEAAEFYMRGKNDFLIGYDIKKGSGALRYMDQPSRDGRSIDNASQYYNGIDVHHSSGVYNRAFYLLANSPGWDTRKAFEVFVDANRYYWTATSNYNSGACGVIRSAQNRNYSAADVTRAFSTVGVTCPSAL", "experiment": "BODIPY-FL casein fluorescence protease assay with purified LasB", "format": "biochemical", "note": "pKi: −log10 of the molar value."}
{"smiles": "CCCCCCC[C@@H]1C[C@H]1CCC(=O)O", "note": "[compound 4, lyngbyoic acid]", "values": [{"measurement": "pKi", "result": 5.27}]}
